Test results from ChEMBL document CHEMBL3232969, “Structure-based design and synthesis of tricyclic IAP (Inhibitors of Apoptosis Proteins) inhibitors” (Bioorg Med Chem Lett, 2014).
pIC50: −log10 of the molar value. Values after ≈ are worked out from the molar mass of the structure shown.

How the values were obtained:
[1] = Lipophilicity, log D of the compound; settings: octanol/water
MDA-MB-231 = test: Growth inhibition of human MDA-MB-231 cells; assay type: functional
[2] = (§1) Percentage unbound in human plasma
[3] = Intrinsic clearance in human liver microsomes
[4] = Aqueous solubility of the compound
[5] = target: E3 ubiquitin-protein ligase XIAP (Homo sapiens, UniProt P98170); test: Inhibition of XIAP BIR3 domain (unknown origin) by fluorescence polarization assay
[6] = target: Baculoviral IAP repeat-containing protein 2 (Homo sapiens, UniProt Q13490)
Description: Inhibition of cIAP1 BIR3 domain (unknown origin) by fluorescence polarization assay

Plasma = test: as §1

logD ([1]; logD) | GI50 (MDA-MB-231; Homo sapiens, MDA-MB-231) [nM] | fraction unbound ([2]; Fu) | microsomal CLint ([3]; liver microsomes, CLH) [µL/min/mg] | solubility [4] [µM] | pIC50 [5] | Compound | further results
1.3 | 370 | 0.48 | 6.8 | > 1000 |  | CN[C@@H](C)C(=O)N[C@H]1CCC[C@H]2C[C@H]3CCN(CCc4ccccc4C)C[C@H]3N2C1=O | 
1.4 | 3000 | 0.039 | 27 | > 1000 |  | CN[C@@H](C)C(=O)N[C@H]1CCC[C@H]2C[C@H]3CCN(C(=O)C(c4ccccc4)c4ccccc4)C[C@H]3N2C1=O | 
0.1 |  |  |  | > 1000 | < 5.00 | CN[C@@H](C)C(=O)N[C@H]1CCC[C@H]2C[C@H]3CCN(CCC4=C(C)OCN4C)C[C@H]3N2C1=O | 
2.1 | 970 | 0.18 | 5.2 | > 1000 | < 5.00 | CN[C@@H](C)C(=O)N[C@H]1CCC[C@H]2C[C@H]3CCN(CCc4ccc(C(F)(F)F)cc4)C[C@H]3N2C1=O | 
1.3 |  |  | 9.1 | > 1000 | < 5.00 | CN[C@@H](C)C(=O)N[C@H]1CCC[C@H]2C[C@H]3CCN(CCc4nc5cc(C)ccc5[nH]4)C[C@H]3N2C1=O | 
1.4 | 96 | 0.49 | < 4 |  |  | CN[C@@H](C)C(=O)N[C@H]1CCC[C@H]2C[C@H]3CCN(CCc4ccccc4F)C[C@H]3N2C1=O | 
-0.2 | 10000 |  |  |  | < 5.00 | CN[C@@H](C)C(=O)N[C@H]1CCC[C@H]2C[C@H]3CCN(CCc4ccccn4)C[C@H]3N2C1=O | 
0.9 | 230 | 0.34 | < 4 | > 1000 |  | CN[C@@H](C)C(=O)N[C@H]1CCC[C@H]2C[C@H]3CCN(CCc4ccccc4OC)C[C@H]3N2C1=O | 
0.2 | 200 |  |  | > 1000 |  | CN[C@@H](C)C(=O)N[C@H]1CCC[C@H]2C[C@H]3CCN(CCc4ccc(O)cc4)C[C@H]3N2C1=O | 
2.2 | 28 | 0.17 | 4.7 | > 1000 |  | CN[C@@H](C)C(=O)N[C@H]1CCC[C@H]2C[C@H]3CCN(CCc4ccc(Br)cc4)C[C@H]3N2C1=O | 
0.4 | 320 | 0.66 | 6.5 | > 1000 |  | CN[C@@H](C)C(=O)N[C@H]1CCC[C@H]2C[C@H]3CCN(C(=O)Cc4ccccc4)C[C@H]3N2C1=O | 
1.3 | 120 | 0.48 | < 4 | > 1000 |  | CN[C@@H](C)C(=O)N[C@H]1CCC[C@H]2C[C@H]3CCN(CCc4ccc(F)cc4)C[C@H]3N2C1=O | pIC50 [6]: 7.68
0.9 | 670 | 0.47 | < 4 | > 1000 |  | CN[C@@H](C)C(=O)N[C@H]1CCC[C@H]2C[C@H]3CCN(CCc4cccc(OC)c4)C[C@H]3N2C1=O | 
1.4 | 2500 | 0.18 | < 4 |  |  | CN[C@@H](C)C(=O)N[C@H]1CCC[C@H]2C[C@H]3CCN(CC(C)c4ccccc4)C[C@H]3N2C1=O (mixture of isomers) | pIC50 [6]: 6.74
1.5 | 1300 | 0.49 | 5 | > 1000 | < 5.00 | CN[C@@H](C)C(=O)N[C@H]1CCC[C@H]2C[C@H]3CCN(CCC4CCCCC4)C[C@H]3N2C1=O | 
0.7 |  | 0.2 | 7.1 | > 1000 |  | CN[C@@H](C)C(=O)N[C@H]1CCC[C@H]2C[C@H]3CCN(S(=O)(=O)c4ccccc4)C[C@H]3N2C1=O | pIC50 [6]: 5.10
1 | 280 | 0.47 | < 4 | > 1000 |  | CN[C@@H](C)C(=O)N[C@H]1CCC[C@H]2C[C@H]3CCN(CCc4ccc([N+](=O)[O-])cc4)C[C@H]3N2C1=O | 
2.5 |  | 0.057 | 32 | > 1000 |  | CN[C@@H](C)C(=O)N[C@H](C(=O)N1CC[C@H]2CCN(CCc3ccccc3)C[C@H]21)C1CCCCC1 | pIC50 [6]: 7.57

logD ([1]; logD) | GI50 (MDA-MB-231; Homo sapiens, MDA-MB-231) [nM] | fraction unbound ([2]; Fu) | microsomal CLint ([3]; liver microsomes, CLH) [µL/min/mg] | solubility [4] [µM] | pIC50 [5] | Compound | further results
0.8 | > 11000 | 0.52 | 7.1 | > 1000 | < 5.00 | CN[C@@H](C)C(=O)N[C@H]1CCC[C@H]2C[C@H]3CCN(Cc4ccccc4)C[C@H]3N2C1=O | 
0.9 | 490 |  | < 4 | > 1000 |  | CN[C@@H](C)C(=O)N[C@H]1CCC[C@H]2C[C@H]3CCN(CCc4c[nH]c5ccccc45)C[C@H]3N2C1=O | 
0.1 |  |  |  |  | < 5.00 | CN[C@@H](C)C(=O)N[C@H]1CCC[C@H]2C[C@H]3CCN(CC(C)C)C[C@H]3N2C1=O | 
1.8 | 340 | 0.24 | 6.6 | > 1000 |  | CN[C@@H](C)C(=O)N[C@H]1CCC[C@H]2C[C@H]3CCN(CCc4ccc(Cl)cc4)C[C@H]3N2C1=O | 
0.3 | 4500 |  |  | > 1000 |  | CN[C@@H](C)C(=O)N[C@H]1CCC[C@H]2C[C@H]3CCN(CCc4scnc4C)C[C@H]3N2C1=O | 
2.7 |  | 0.049 | 14 | > 1000 | < 5.00 | CN[C@@H](C)C(=O)N[C@H]1CCC[C@H]2C[C@H]3CCN(C(c4ccccc4)c4ccccc4)C[C@H]3N2C1=O | 
2.3 | 260 | 0.065 | 28 | > 1000 |  | CN[C@@H](C)C(=O)N[C@H]1CCC[C@H]2C[C@H]3CCN(CCc4ccc(Cl)c(Cl)c4)C[C@H]3N2C1=O | 
1.6 | 160 | 0.32 | < 4 | > 1000 |  | CN[C@@H](C)C(=O)N[C@H]1CCC[C@H]2C[C@H]3CCN(CCc4ccc(C)cc4)C[C@H]3N2C1=O | 
1.3 | 310 | 0.47 | 6.9 | > 1000 |  | CN[C@@H](C)C(=O)N[C@H]1CCC[C@H]2C[C@H]3CCN(CCc4cccc(C)c4)C[C@H]3N2C1=O | 
0.4 | > 11000 | 0.4 | 25 | > 1000 |  | CN[C@@H](C)C(=O)N[C@H]1CCC[C@H]2C[C@H]3CCN(S(=O)(=O)Cc4ccccc4)C[C@H]3N2C1=O | pIC50 [6]: 5.55
1.3 | 320 | 0.51 | < 4 | > 1000 |  | CN[C@@H](C)C(=O)N[C@H]1CCC[C@H]2C[C@H]3CCN(CCc4ccccc4)C[C@H]3N2C1=O | 
0.6 | 3900 | 0.62 | 6.7 | > 1000 |  | CN[C@@H](C)C(=O)N[C@H]1CCC[C@H]2C[C@H]3CCN(C(=O)Nc4ccccc4)C[C@H]3N2C1=O | 
1.6 | > 11000 | 0.47 |  |  | < 5.00 | CN[C@@H](C)C(=O)N[C@H]1CCC[C@H]2C[C@H]3CCN(CCCc4ccccc4)C[C@H]3N2C1=O | 
 |  |  |  |  |  | CN[C@@H](C)C(=O)N[C@H]1CCC[C@H]2C[C@H]3CCN(C(=O)C(OCC#CC#CCOC(C(=O)N4CC[C@@H]5C[C@@H]6CCC[C@H](NC(=O)[C@H](C)NC)C(=O)N6[C@@H]5C4)c4ccccc4)c4ccccc4)C[C@H]3N2C1=O (single isomer, unassigned; isomer 2) | logD [1]: 1.9; GI50 (MDA-MB-231): 200 nM; Fu (Plasma): 10%
-0.4 |  | > 0.7 | 7.05 | > 1000 | < 5.00 | CN[C@@H](C)C(=O)N[C@H]1CCC[C@H]2C[C@H]3CCN(C(=O)c4ccccc4)C[C@H]3N2C1=O | pIC50 [6]: < 5.00
1 | 2600 | 0.47 | < 4 | > 1000 |  | CN[C@@H](C)C(=O)N[C@H]1CCC[C@H]2C[C@H]3CCN(CCc4ccc(OC)cc4)C[C@H]3N2C1=O | 
 |  |  |  |  | < 5.00 | CCCCN1CC[C@@H]2C[C@@H]3CCC[C@H](NC(=O)[C@H](C)NC)C(=O)N3[C@@H]2C1 | pIC50 [6]: 5.92
 |  |  |  |  |  | CN[C@@H](C)C(=O)N[C@H]1CCC[C@H]2SC(C)(C)C(C(=O)Nc3cc(C)nn3-c3ccccc3)N2C1=O (some centres undefined) | pIC50 [6]: 7.30

Compound | logD ([1]; logD) | GI50 (MDA-MB-231; Homo sapiens, MDA-MB-231) [nM] | fraction unbound ([2]; Fu) | microsomal CLint ([3]; liver microsomes, CLH) [µL/min/mg] | solubility [4] [µM] | pIC50 [5] | further results
CN[C@@H](C)C(=O)N[C@H]1CCC[C@H]2C[C@H]3CCN(C(=O)Oc4ccccc4)C[C@H]3N2C1=O |  | 910 |  |  | 700 (≈ 300 µg/mL) |  | logD [1]: 0.7; fraction unbound [2]: 0.51; microsomal CLint ([3]; liver microsomes): 6.3 µL/min/mg
CN[C@@H](C)C(=O)N[C@H]1CCC[C@H]2C[C@H]3CCN(C(=O)OCc4ccccc4)C[C@H]3N2C1=O |  | > 369 | 0.42 |  |  |  | microsomal CLint ([3]; microsomes, CLH): 20 µL/min/mg
CN[C@@H](C)C(=O)N[C@H]1CCC[C@H]2C[C@H]3CCN(CC4CCCCC4)C[C@H]3N2C1=O | 0.9 | 2000 |  | 8.9 |  | < 5.00 | 
